Test results reported in patent US20170349592A1, “POLYMORPHIC SUBSTANCE OF YONKENAFIL HYDROCHLORIDE, PREPARATION METHOD THEREFOR, AND COMPOSITION AND USE THEREOF” (Yangtze River Pharmaceutical Group Co., Ltd., priority 2014, published 2017).

Experiment: Standing of the crystalline form at room temperature (polymorph stability)
Assay type: physicochemical
Details: standing at the condition of room temperature for one week; monohydrochloride

Row | SMILES | stability of the crystalline form (polymorphic conversion)
1 | CCCn1cc(C)c2c(=O)[nH]c(-c3cc(S(=O)(=O)N4CCN(CC)CC4)ccc3OCC)nc21.Cl [B-type polymorphic substance of yonkenafil hydrochloride] [2-[2-ethoxy-5-(4-ethylpiperazine-1-sulfonyl)phenyl]-5-methyl-7-n-propyl-3,7-dihydropyrrolo[2,3-d]pyrimidin-4-one monohydrochloride] | can be converted into the A-type polymorphic substance of yonkenafil hydrochloride
2 | CCCn1cc(C)c2c(=O)[nH]c(-c3cc(S(=O)(=O)N4CCN(CC)CC4)ccc3OCC)nc21.Cl [A-type polymorphic substance of yonkenafil hydrochloride] [2-[2-ethoxy-5-(4-ethylpiperazine-1-sulfonyl)phenyl]-5-methyl-7-n-propyl-3,7-dihydropyrrolo[2,3-d]pyrimidin-4-one monohydrochloride] | more stable than the B-type polymorphic substance of yonkenafil hydrochloride
